Results: ChEMBL document CHEMBL1201862, “PubChem BioAssay data set” (2004)
One block for each compound: values may come before it. Activity calls are given as the source filed them.

Tests used:
Estrogen receptor = target: T1, Estrogen receptor (Homo sapiens, UniProt P03372);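 note: potency for inhibiting coactivator peptide recruitment to the receptor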
T1 sequence (P03372 whole entry): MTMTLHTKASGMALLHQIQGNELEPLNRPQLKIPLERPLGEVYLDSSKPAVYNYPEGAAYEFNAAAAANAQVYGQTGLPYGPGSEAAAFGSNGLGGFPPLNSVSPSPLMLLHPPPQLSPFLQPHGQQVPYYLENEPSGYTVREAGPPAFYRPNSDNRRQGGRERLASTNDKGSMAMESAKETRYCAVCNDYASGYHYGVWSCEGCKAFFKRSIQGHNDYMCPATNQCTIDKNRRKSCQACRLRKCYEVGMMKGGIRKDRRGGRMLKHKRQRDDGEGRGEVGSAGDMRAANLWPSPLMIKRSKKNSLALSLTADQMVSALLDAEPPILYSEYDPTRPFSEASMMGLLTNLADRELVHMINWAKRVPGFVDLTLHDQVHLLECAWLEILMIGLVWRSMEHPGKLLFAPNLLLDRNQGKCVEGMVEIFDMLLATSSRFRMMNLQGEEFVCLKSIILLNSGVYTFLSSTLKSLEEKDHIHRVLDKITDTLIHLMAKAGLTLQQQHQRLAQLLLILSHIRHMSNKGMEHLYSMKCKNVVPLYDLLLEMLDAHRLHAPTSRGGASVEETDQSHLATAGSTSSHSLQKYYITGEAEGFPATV

Genome polyprotein = Genome polyprotein (dengue virus type 2, UniProt P29990); test: Dengue-2 NS5 methyltransferase inhibitors, primary screen, biochemical, confirmation dose response (AID 588689); format: functional
[1] = target: T2, 1-phosphatidylinositol 4,5-bisphosphate phosphodiesterase gamma-1 (Homo sapiens, UniProt P19174); test: Counterscreen for inhibitors of phospholipase C isozymes (PLC-B3): Fluorescence-based biochemical high throughput dose response assay to identify inhibitors of phospholipase C isozymes (PLC-gamma1).
T2 sequence (P19174 whole entry): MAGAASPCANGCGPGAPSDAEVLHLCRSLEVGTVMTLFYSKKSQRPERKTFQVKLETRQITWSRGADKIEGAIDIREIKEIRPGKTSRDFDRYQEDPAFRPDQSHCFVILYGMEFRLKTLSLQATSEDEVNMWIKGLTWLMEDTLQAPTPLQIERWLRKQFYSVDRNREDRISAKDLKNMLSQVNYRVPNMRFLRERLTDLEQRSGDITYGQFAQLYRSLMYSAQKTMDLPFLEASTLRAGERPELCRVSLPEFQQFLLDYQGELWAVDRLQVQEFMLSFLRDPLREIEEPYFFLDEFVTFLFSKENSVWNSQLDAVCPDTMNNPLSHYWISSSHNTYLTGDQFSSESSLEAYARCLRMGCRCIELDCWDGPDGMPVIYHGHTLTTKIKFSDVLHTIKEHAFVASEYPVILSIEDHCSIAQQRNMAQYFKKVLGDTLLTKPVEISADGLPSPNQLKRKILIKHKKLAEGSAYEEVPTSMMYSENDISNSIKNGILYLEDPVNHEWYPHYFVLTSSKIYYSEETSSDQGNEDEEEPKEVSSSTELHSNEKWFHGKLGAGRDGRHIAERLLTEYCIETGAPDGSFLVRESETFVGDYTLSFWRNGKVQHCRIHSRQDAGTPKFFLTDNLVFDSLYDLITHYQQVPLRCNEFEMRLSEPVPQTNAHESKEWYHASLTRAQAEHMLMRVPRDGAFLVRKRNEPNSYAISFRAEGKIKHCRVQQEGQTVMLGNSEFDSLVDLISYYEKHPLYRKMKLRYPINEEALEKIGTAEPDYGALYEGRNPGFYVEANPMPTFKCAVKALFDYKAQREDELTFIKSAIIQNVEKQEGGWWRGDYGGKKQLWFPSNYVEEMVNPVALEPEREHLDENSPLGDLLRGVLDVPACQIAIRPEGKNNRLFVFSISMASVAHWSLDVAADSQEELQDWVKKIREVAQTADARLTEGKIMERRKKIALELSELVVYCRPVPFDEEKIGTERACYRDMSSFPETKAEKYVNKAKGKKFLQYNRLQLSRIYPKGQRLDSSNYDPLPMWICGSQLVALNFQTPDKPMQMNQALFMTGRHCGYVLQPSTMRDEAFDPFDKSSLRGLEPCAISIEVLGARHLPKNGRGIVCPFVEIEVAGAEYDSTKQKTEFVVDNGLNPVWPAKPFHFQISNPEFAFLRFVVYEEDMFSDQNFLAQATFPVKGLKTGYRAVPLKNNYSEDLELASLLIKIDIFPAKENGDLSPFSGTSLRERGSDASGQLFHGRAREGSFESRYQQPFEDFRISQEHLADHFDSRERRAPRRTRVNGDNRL

[2] = target: T3, 1-phosphatidylinositol 4,5-bisphosphate phosphodiesterase beta-3 (Homo sapiens, UniProt Q01970); test: Fluorescence-based biochemical high throughput dose response assay to identify inhibitors of phospholipase C isozymes (PLC-B3).
T3 sequence (Q01970 whole entry): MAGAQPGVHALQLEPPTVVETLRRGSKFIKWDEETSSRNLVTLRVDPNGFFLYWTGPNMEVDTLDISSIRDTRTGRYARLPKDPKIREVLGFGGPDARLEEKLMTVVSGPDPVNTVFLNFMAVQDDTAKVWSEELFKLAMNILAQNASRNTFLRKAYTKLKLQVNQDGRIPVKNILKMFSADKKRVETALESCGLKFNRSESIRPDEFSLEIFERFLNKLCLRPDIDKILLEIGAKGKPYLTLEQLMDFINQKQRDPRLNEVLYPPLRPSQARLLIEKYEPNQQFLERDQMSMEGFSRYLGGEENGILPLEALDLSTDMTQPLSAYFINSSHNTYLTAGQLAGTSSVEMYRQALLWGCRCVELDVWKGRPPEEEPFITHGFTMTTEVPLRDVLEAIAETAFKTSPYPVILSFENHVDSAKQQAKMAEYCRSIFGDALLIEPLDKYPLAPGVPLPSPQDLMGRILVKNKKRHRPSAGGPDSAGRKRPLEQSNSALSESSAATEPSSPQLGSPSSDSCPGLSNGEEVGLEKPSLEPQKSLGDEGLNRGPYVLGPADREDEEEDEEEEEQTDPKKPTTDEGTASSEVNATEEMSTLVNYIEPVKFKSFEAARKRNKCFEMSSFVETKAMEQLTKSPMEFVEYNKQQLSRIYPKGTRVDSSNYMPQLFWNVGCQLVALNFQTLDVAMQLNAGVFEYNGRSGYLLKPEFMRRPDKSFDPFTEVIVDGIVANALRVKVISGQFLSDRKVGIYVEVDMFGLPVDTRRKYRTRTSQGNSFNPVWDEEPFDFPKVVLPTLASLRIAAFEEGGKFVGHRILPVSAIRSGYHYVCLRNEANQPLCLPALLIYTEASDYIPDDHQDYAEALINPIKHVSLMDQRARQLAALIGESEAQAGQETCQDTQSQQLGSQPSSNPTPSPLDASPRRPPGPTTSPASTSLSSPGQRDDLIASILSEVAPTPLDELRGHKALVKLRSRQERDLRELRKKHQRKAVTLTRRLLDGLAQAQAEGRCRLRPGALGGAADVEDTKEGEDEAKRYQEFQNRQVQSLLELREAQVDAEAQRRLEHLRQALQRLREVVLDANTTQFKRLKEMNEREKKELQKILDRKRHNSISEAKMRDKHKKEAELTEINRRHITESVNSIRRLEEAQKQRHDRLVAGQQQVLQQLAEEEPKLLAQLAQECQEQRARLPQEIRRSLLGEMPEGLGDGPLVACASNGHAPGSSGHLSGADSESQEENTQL

[3] = target: Glyceraldehyde-3-phosphate dehydrogenase (Homo sapiens, UniProt P04406)
Bcl-2-related protein A1 [4] = target: T4, Bcl-2-related protein A1 (Mus musculus, UniProt Q07440); test: Bfl-1 inhibitors blocking BH3 peptide binding, confirmation, biochemical, TR-FRET, mouse Bfl-1 (AID 621);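 note: TR-FRET binding of GST-Bfl-1 to FITC-labelled Bid peptide via terbium antibody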
T4 sequence (Q07440 whole entry): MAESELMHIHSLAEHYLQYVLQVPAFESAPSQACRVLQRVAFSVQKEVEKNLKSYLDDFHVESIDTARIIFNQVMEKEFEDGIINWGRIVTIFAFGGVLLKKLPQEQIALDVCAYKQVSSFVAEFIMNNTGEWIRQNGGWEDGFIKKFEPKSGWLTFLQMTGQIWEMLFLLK

Bcl-2-related protein A1 [5] = target: T4, Bcl-2-related protein A1; test: Bfl-1 binding inhibitors, SAR follow-up, biochemical, fluorescence polarization (AID 1070)
[6] = HEp-2 cell cytotoxicity, dose response, cytotoxicity control for RSV inhibitor project, HTS (AID 2410); format: functional; conditions: human respiratory syncytial virus
[7] = target: T5, Carboxy-terminal domain RNA polymerase II polypeptide A small phosphatase 1 (Homo sapiens, UniProt Q9GZU7); test: inhibitors of CTDSP1, concentration-response testing, biochemical assay, absorbance-based, actives from ultra-high-throughput screening (AID 540297); format: functional
T5 sequence (Q9GZU7 whole entry): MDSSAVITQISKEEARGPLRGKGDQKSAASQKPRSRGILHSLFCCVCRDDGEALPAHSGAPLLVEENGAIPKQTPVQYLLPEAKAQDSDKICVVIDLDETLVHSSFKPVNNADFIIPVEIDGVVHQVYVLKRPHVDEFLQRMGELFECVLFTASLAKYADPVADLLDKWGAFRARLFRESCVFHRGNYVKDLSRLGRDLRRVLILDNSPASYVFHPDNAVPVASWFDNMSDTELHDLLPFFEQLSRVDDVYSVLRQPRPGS

NS3 = NS3 (Hepatitis C virus, UniProt A3EZJ3); test: PubChem AID 2173; design: species or system Hepacivirus hominis
[8] = target: G-protein coupled receptor 55 (Homo sapiens, UniProt Q9Y2T6); test: GPR55 antagonists blocking LPI-driven arrestin recruitment, primary screen, imaging, U2OS, beta-arrestin-GFP, LPI agonist (AID 2013); format: functional;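 note: antagonist potency measured as reduced agonist-driven arrestin aggregation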
[9] = target: T6, Mannose-6-phosphate isomerase (Homo sapiens, UniProt P34949); test: human PMI inhibitors, high substrate, primary screen, biochemical, fluorescence intensity, high mannose 6-phosphate (AID 1220)
T6 sequence (P34949 whole entry): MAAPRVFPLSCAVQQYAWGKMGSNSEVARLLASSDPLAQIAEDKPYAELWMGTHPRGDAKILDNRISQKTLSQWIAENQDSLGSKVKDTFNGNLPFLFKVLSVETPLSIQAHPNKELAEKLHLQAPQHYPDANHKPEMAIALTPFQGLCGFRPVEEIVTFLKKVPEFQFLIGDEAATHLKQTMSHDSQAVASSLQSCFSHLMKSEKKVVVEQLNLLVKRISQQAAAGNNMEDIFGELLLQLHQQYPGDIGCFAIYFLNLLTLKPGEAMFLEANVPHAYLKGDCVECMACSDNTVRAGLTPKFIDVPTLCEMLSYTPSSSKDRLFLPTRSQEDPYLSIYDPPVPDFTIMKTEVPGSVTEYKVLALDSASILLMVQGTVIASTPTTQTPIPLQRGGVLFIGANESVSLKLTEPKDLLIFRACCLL

[10] = target: Eukaryotic translation initiation factor 4E (Mus musculus, UniProt P63073); test: eIF4E–eIF4G protein interaction inhibitors, dose response, biochemical, TR-FRET (AID 855); format: functional;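 note: potency for disrupting eIF4E binding to eIF4GI seen as loss of FRET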
Estrogen receptor beta = Estrogen receptor beta (Homo sapiens, UniProt Q92731); test: ERβ–SRC-3 coactivator interaction inhibitors, confirmation, orthogonal assay, biochemical, ELISA, streptavidin-HRP readout (AID 1060)
Chain of Estrogen receptor beta (Q92731 whole entry): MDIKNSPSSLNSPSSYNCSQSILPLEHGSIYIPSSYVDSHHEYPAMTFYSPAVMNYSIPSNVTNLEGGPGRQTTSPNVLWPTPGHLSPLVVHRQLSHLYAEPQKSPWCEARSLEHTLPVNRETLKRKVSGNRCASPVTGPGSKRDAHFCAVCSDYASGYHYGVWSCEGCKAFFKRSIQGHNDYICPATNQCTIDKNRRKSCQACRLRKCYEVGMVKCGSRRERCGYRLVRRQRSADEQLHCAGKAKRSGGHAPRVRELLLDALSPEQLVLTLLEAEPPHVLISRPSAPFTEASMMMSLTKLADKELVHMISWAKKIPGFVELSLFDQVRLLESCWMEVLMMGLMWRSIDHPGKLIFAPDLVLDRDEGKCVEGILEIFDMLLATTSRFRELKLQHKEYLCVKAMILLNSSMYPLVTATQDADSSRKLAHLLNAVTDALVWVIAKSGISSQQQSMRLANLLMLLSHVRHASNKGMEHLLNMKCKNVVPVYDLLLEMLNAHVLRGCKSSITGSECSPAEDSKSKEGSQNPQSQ

Chain of Glyceraldehyde-3-phosphate dehydrogenase (P04406 whole entry): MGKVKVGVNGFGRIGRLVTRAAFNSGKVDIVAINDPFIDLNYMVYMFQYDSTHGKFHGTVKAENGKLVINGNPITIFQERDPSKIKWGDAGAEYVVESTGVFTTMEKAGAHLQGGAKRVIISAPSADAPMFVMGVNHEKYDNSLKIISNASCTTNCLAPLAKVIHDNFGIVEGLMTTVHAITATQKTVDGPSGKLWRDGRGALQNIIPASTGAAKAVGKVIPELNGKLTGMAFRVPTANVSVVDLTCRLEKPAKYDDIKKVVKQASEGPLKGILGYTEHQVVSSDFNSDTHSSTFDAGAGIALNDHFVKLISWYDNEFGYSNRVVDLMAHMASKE
Chain of NS3 (A3EZJ3 whole entry): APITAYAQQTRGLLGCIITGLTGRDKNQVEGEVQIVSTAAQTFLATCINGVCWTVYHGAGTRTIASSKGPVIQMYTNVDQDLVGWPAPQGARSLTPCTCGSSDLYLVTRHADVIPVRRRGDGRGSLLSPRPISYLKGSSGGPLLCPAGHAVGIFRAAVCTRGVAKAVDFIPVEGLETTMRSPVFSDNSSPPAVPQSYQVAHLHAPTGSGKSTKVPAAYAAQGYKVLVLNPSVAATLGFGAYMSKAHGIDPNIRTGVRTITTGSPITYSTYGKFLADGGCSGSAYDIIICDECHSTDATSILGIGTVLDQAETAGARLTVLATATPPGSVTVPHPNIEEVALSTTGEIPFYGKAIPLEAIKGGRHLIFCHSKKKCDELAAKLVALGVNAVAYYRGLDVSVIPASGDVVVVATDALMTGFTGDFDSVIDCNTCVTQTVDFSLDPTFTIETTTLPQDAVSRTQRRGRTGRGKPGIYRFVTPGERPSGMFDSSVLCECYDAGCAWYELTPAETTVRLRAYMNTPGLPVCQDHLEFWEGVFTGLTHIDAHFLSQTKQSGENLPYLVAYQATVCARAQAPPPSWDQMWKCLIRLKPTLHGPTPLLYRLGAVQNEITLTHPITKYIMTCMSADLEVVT
Chain of Eukaryotic translation initiation factor 4E (P63073 whole entry): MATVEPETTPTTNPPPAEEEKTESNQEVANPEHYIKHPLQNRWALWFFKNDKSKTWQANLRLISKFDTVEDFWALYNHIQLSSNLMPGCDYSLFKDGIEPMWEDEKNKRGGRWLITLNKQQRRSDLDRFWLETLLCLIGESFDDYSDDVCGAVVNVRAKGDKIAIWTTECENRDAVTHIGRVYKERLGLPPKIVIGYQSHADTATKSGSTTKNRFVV
Chain of Genome polyprotein (P29990 2492-3391 limits assumed): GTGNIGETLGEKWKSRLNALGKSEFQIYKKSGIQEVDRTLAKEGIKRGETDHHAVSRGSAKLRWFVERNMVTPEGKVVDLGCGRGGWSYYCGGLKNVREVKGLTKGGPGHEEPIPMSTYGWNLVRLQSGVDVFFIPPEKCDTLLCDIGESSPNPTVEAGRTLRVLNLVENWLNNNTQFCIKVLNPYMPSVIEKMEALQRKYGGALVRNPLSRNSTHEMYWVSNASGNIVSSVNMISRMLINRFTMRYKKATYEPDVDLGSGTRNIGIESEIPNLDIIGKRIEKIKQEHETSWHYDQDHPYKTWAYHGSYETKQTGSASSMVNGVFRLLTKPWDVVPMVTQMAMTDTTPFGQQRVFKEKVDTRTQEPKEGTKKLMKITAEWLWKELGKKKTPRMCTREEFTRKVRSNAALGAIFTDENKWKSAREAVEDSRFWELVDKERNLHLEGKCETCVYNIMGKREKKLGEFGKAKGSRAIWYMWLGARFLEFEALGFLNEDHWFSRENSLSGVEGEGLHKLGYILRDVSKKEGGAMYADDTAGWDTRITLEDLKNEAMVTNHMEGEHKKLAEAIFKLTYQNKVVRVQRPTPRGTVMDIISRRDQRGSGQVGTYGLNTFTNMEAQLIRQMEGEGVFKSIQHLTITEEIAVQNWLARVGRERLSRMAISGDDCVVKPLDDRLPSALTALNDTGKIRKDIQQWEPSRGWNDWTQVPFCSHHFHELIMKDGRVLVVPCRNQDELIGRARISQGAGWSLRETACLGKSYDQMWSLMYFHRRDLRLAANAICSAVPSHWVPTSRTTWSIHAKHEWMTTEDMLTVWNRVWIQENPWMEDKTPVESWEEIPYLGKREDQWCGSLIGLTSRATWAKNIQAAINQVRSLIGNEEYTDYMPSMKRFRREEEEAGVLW
Chain of G-protein coupled receptor 55 (Q9Y2T6 whole entry): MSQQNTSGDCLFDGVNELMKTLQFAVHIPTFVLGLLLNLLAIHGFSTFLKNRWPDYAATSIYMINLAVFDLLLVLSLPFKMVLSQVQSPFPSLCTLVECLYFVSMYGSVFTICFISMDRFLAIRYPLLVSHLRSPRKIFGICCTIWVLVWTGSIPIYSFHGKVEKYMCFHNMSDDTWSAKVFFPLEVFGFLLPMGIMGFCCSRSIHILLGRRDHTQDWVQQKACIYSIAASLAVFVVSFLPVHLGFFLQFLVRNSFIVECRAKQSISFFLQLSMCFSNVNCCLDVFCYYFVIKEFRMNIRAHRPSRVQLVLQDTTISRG

Compound: COc1cc(Cl)cc(C(c2c(C(=O)O)[nH]c3ccccc23)c2c(C(=O)O)[nH]c3ccccc23)c1O
- IC50 (Genome polyprotein): 16.9 µM (active)
- IC50 [1]: 54 µM (inactive)
- IC50 [2]: > 122 µM (inactive)

Compound: O=C1C(Cl)=C(N2CCN(CCNCc3ccccn3)CC2)C(=O)N1c1ccc(Cl)c(Cl)c1
- IC50 [3]: > 100 µM (not active)
- IC50 (Bcl-2-related protein A1 [4]): 8.14 µM (active)
- IC50 (Bcl-2-related protein A1 [5]): 16.3 µM (active)

Compound: O=C(O)c1ccccc1Nc1ccc(OC(F)F)cc1
- CC50 [6]: 23.8 µM (active)
- IC50 (cells): 40.9 µM (active)

Compound: O=C(CSc1nc(-c2ccc(F)cc2)cs1)NC(=O)NCc1ccco1
- IC50 (Estrogen receptor): > 50 µM (not active)
- IC50 [7]: 18.8 µM (active)

Compound: COC(=O)c1cc(NC2c3ccccc3C(=O)N2c2ccc(Cl)cn2)cc(C(=O)OC)c1 (centres undefined)
- IC50 (Estrogen receptor): > 50 µM (not active)

Compound: OCCC1CN(Cc2cccn2-c2nccs2)CCN1CCc1ccccc1 (centres undefined)
- IC50 (cells): 30.3 µM (active)

Compound: O=C(Nc1ccccc1Cl)C(Cl)C(=O)c1ccccc1 (centres undefined)
- IC50 [8]: 11.2 µM (inactive)

Compound: Cc1sc2nc(C3CC3)nc(SCC(=O)N3c4ccccc4CC3C)c2c1C (centres undefined)
- CC50 [6]: 7.61 µM (active)
- IC50 (cells): 3.98 µM (active)

Compound: O=C1C(Cl)=C(Cl)C(=O)N1c1cccc([N+](=O)[O-])c1
- IC50 [3]: > 100 µM (not active)
- IC50 (Bcl-2-related protein A1 [4]): 16.4 µM (active)
- IC50 (Bcl-2-related protein A1 [5]): 11.9 µM (active)

Compound: Cc1ccc(C23CC4CC(CC(C(=O)NCC(=O)O)(C4)C2)C3)cc1
- IC50 [1]: > 122 µM (inactive)
- IC50 [2]: > 122 µM (inactive)

Compound: COc1ccc(-n2c(SCC(=O)/C(C#N)=C(\C)N)nc3ccccc3c2=O)cc1OC
- IC50 (cells): 2.62 µM (active)

The next lines start with the values.

- IC50 (Estrogen receptor): > 50 µM (not active)
Compound: C=CCn1c(=O)[nH]c2cc(C(=O)N3CCN(c4ccc(C(C)=O)cc4)CC3)ccc2c1=O

- IC50 [3]: > 100 µM (not active)
- IC50 (Bcl-2-related protein A1 [4]): 3.72 µM (active)
- IC50 (Bcl-2-related protein A1 [5]): 13.4 µM (active)
Compound: CN1CCN(C2=C(Cl)C(=O)N(c3c(Cl)cccc3Cl)C2=O)CC1

- IC50 (NS3): 3.02 µM (active)
Compound: Cc1cccc(N2C(=O)C(O)=C(C(=O)c3cccs3)C2c2cccc(Oc3ccccc3)c2)n1 (centres undefined)

- IC50 [1]: > 123 µM (inactive)
- IC50 [2]: > 123 µM (inactive)
Compound: CSc1nc(N)c(C(=O)NC2CCCCC2)s1

- IC50 [1]: > 123 µM (inactive)
- IC50 [2]: > 123 µM (inactive)
Compound: CCc1cccc(NC(=O)CN(c2ccc(OC)cc2)S(=O)(=O)c2c(C)n[nH]c2C)c1

- IC50 [9]: > 50 µM (not active)
- IC50 [10]: 27.5 µM (active)
Compound: c1ccc2[nH]c(SN3CCOCC3)nc2c1

- IC50 (Estrogen receptor beta): > 50 µM (not active)
Compound: O=C(Nc1ccc(F)cc1F)c1noc2c1CCC2

- IC50 (Estrogen receptor beta): 44.5 µM (not active)
Compound: N#Cc1c(NC(=O)CN2CCN(c3ccccc3)CC2)sc2c1CCC2
